Test results as given in ChEMBL document CHEMBL1201862, “PubChem BioAssay data set” (2004).
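48-hour exposure; five concentrations; linearly interpolated endpoints. Here, GI50 denotes the concentration required for 50% inhibition of growth.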 Active and inactive are the calls of the source. No stated cut-off is given here; in the data, active = GI50 up to about 1.1 µM and inactive = higher.

Experiments:
Test in all cases: growth of human tumour cells (NCI), 48 h
[1] = system: 786-0
[2] = system: A498
[3] = system: ACHN
[4] = system: CAKI-1
[5] = system: COLO 205
[6] = system: DMS-114
[7] = system: DMS-273
[8] = system: EKVX
[9] = system: HCC 2998
[10] = system: HCT-116
[11] = system: HCT-15
[12] = system: HOP-18
[13] = system: HOP-62
[14] = system: HOP-92
[15] = system: HT-29
[16] = system: IGROV-1
[17] = system: K562
[18] = system: KM-20L2
[19] = system: KM12
[20] = system: LOX IMVI
[21] = system: LXFL 529
[22] = system: M14
[23] = system: M19-MEL
[24] = system: Malme-3M
[25] = system: NCI-H226
[26] = system: NCI-H23
[27] = system: NCI-H460
[28] = system: NCI-H522
[29] = system: OVCAR-3
[30] = system: OVCAR-4
[31] = system: OVCAR-5
[32] = system: OVCAR-8
[33] = system: RPMI-8226
[34] = system: RXF 393
[35] = system: RXF 631
[36] = system: SF-268
[37] = system: SF-295
[38] = system: SF-539
[39] = system: SK-MEL-28
[40] = system: SK-MEL-2
[41] = system: SK-MEL-5
[42] = system: SK-OV-3
[43] = system: SN12C
[44] = system: SNB-19
[45] = system: SNB-75
[46] = system: SNB-78
[47] = system: SW-620
[48] = system: TK-10
[49] = system: U-251
[50] = system: UACC-257
[51] = system: UACC-62
[52] = system: UO-31
[53] = system: XF498
[54] = system: A549
[55] = system: CCRF-CEM
[56] = system: DLD-1
[57] = system: MOLT-4

N#CC1C(=O)C(=O)N(c2ccccc2)C1=O (configuration not stated)
GI50 [1]: > 100 µM (inactive) | GI50 [2]: > 100 µM (inactive) | GI50 [3]: > 100 µM (inactive) | GI50 [4]: > 100 µM (inactive) | GI50 [5]: > 100 µM (inactive) | GI50 [6]: > 100 µM (inactive) | GI50 [7]: > 100 µM (inactive) | GI50 [8]: > 100 µM (inactive) | GI50 [9]: > 100 µM (inactive) | GI50 [10]: > 100 µM (inactive) | GI50 [11]: > 100 µM | GI50 [12]: > 100 µM (inactive) | GI50 [13]: > 100 µM (inactive) | GI50 [14]: > 100 µM (inactive) | GI50 [15]: > 100 µM (inactive) | GI50 [16]: > 100 µM (inactive) | GI50 [17]: > 100 µM (inactive) | GI50 [18]: > 100 µM (inactive) | GI50 [19]: > 100 µM (inactive) | GI50 [20]: > 100 µM (inactive) | GI50 [21]: > 100 µM (inactive) | GI50 [22]: > 100 µM (inactive) | GI50 [23]: > 100 µM (inactive) | GI50 [24]: > 100 µM (inactive) | GI50 [25]: > 100 µM (inactive) | GI50 [26]: > 100 µM (inactive) | GI50 [27]: > 100 µM (inactive) | GI50 [28]: > 100 µM (inactive) | GI50 [29]: > 100 µM (inactive) | GI50 [30]: > 100 µM (inactive) | GI50 [31]: > 100 µM (inactive) | GI50 [32]: > 100 µM (inactive) | GI50 [33]: > 100 µM (inactive) | GI50 [34]: > 100 µM (inactive) | GI50 [35]: > 100 µM (inactive) | GI50 [36]: > 100 µM (inactive) | GI50 [37]: > 100 µM (inactive) | GI50 [38]: > 100 µM (inactive) | GI50 [39]: > 100 µM (inactive) | GI50 [40]: > 100 µM (inactive) | GI50 [41]: > 100 µM (inactive) | GI50 [42]: > 100 µM (inactive) | GI50 [43]: > 100 µM (inactive) | GI50 [44]: > 100 µM (inactive) | GI50 [45]: 81.3 µM (inactive) | GI50 [46]: > 100 µM (inactive) | GI50 [47]: > 100 µM (inactive) | GI50 [48]: > 100 µM (inactive) | GI50 [49]: > 100 µM (inactive) | GI50 [50]: > 100 µM (inactive) | GI50 [51]: > 100 µM (inactive) | GI50 [52]: > 100 µM (inactive) | GI50 [53]: > 100 µM (inactive)

CC12CC3CC(C1)CC(N=[N+]=[N-])(C3)C2
GI50 [1]: > 100 µM (inactive) | GI50 [2]: > 100 µM (inactive) | GI50 [54]: > 100 µM (inactive) | GI50 [3]: > 100 µM (inactive) | GI50 [4]: > 100 µM (inactive) | GI50 [55]: > 100 µM (inactive) | GI50 [5]: > 100 µM (inactive) | GI50 [56]: > 100 µM (inactive) | GI50 [6]: > 100 µM (inactive) | GI50 [7]: > 100 µM (inactive) | GI50 [8]: > 100 µM (inactive) | GI50 [9]: > 100 µM (inactive) | GI50 [10]: > 100 µM (inactive) | GI50 [12]: > 100 µM (inactive) | GI50 [13]: > 100 µM (inactive) | GI50 [14]: > 100 µM (inactive) | GI50 [15]: > 100 µM (inactive) | GI50 [16]: > 100 µM (inactive) | GI50 [17]: > 100 µM (inactive) | GI50 [18]: > 100 µM (inactive) | GI50 [19]: > 100 µM (inactive) | GI50 [20]: > 100 µM (inactive) | GI50 [21]: > 100 µM (inactive) | GI50 [22]: > 100 µM (inactive) | GI50 [23]: > 100 µM (inactive) | GI50 [57]: > 100 µM (inactive) | GI50 [24]: > 100 µM (inactive) | GI50 [25]: > 100 µM (inactive) | GI50 [26]: > 100 µM (inactive) | GI50 [27]: > 100 µM (inactive) | GI50 [28]: > 100 µM (inactive) | GI50 [29]: > 100 µM (inactive) | GI50 [30]: > 100 µM (inactive) | GI50 [31]: > 100 µM (inactive) | GI50 [32]: > 100 µM (inactive) | GI50 [33]: > 100 µM (inactive) | GI50 [35]: > 100 µM (inactive) | GI50 [37]: > 100 µM (inactive) | GI50 [38]: > 100 µM (inactive) | GI50 [39]: > 100 µM (inactive) | GI50 [40]: > 100 µM (inactive) | GI50 [41]: > 100 µM (inactive) | GI50 [42]: > 100 µM (inactive) | GI50 [43]: > 100 µM (inactive) | GI50 [44]: > 100 µM (inactive) | GI50 [45]: > 100 µM (inactive) | GI50 [46]: > 100 µM (inactive) | GI50 [47]: > 100 µM (inactive) | GI50 [48]: > 100 µM (inactive) | GI50 [49]: > 100 µM (inactive) | GI50 [50]: > 100 µM (inactive) | GI50 [51]: > 100 µM (inactive) | GI50 [52]: > 100 µM (inactive) | GI50 [53]: > 100 µM (inactive)

Cc1cc2c(C(C)C)c(O)c(O)c(C=O)c2c(O)c1-c1c(C)cc2c(C(C)C)c(O)c(O)c(C=O)c2c1O [GOSSYPOL]
GI50 [2]: 4.35 µM (inactive) | GI50 [54]: 2.98 µM (inactive) | GI50 [3]: 3.02 µM (inactive) | GI50 [4]: 4.14 µM (inactive) | GI50 [5]: 2.63 µM (inactive) | GI50 [56]: 3.84 µM (inactive) | GI50 [6]: 2.58 µM (inactive) | GI50 [7]: 4.4 µM (inactive) | GI50 [8]: 2.15 µM (inactive) | GI50 [11]: 3.52 µM | GI50 [12]: 3.69 µM (inactive) | GI50 [17]: 3.08 µM (inactive) | GI50 [18]: 3.33 µM (inactive) | GI50 [19]: 1.97 µM (inactive) | GI50 [21]: 2.74 µM (inactive) | GI50 [23]: 3.34 µM (inactive) | GI50 [57]: 1.91 µM (inactive) | GI50 [24]: 5.46 µM (inactive) | GI50 [29]: 3.24 µM (inactive) | GI50 [33]: 2.49 µM (inactive) | GI50 [35]: 5.32 µM (inactive) | GI50 [37]: 2.37 µM (inactive) | GI50 [39]: 4.66 µM (inactive) | GI50 [43]: 5.09 µM (inactive) | GI50 [44]: 3.86 µM (inactive) | GI50 [46]: 5.14 µM (inactive) | GI50 [47]: 4.59 µM (inactive) | GI50 [49]: 2.52 µM (inactive) | GI50 [51]: 2.36 µM (inactive) | GI50 [53]: 2.26 µM (inactive)
